According to paper PMC3116712 (ACS medicinal chemistry letters, 2011):

These molecules were tested against WT A/M2 proton channel (Influenza A virus, UniProt P0DOF5). Conditions: TEVC.
Assay type: cell-based

Sequence of WT A/M2 proton channel (P0DOF5 whole entry, looked up): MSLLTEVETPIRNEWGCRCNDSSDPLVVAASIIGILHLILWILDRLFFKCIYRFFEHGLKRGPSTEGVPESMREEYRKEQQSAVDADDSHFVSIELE

SMILES | activity against WT A/M2 channel (in words)
O=S(=O)(O)C12CC3CC(CC(C3)C1)C2 [Compound 3, 1-adamantyl sulfonic acid] | inactive
OC1C2C3CC4C1C1C2CC3C41 (stereo not drawn) [Compound 19] | only moderate inhibition
NN1C(=O)CC2(CCCCC2)CC1=O [Compound 17] | only weakly active
CC12CC3(O)CC1(C)CC3(O)C2 [Compound 26] | only moderately active
Cl.NC12CC3CC(C1)CC(CO)(C3)O2 [Compound 25] | not active
O=C1CC2(CCCCC2)CC(=O)N1 [Compound 16] | only weakly active
